# Source: PubChem BioAssay (NCI)
# Values joined by “and” are separate entries in the source; they are usually repeats but may differ in a detail not shown here. Equal entries are not always repeated.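 Test compounds were applied to cells in 96-well plates for 48 hours at 5 doses. GI50 marks 50% less growth. At the TGI there is no net growth.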
# Legend:
# Assay in all cases: NCI anticancer screen, dose series, 48 h
# CCRF-CEM leukemia = tested on: CCRF-CEM leukemia
# MDA-MB-435 = tested on: MDA-MB-435
# SK-MEL-28 melanoma = tested on: SK-MEL-28 melanoma
# NCI-H226 lung = tested on: NCI-H226 lung
# HCC-2998 colon = tested on: HCC-2998 colon
# OVCAR-5 ovarian = tested on: OVCAR-5 ovarian
# NCI-H522 lung = tested on: NCI-H522 lung
# SF-295 CNS = tested on: SF-295 CNS
# SK-OV-3 ovarian = tested on: SK-OV-3 ovarian
# SW-620 colon = tested on: SW-620 colon
Structure (SMILES),GI50 (CCRF-CEM leukemia) [µM],TGI (CCRF-CEM leukemia),GI50 (MDA-MB-435) [µM],TGI (MDA-MB-435) [µM],GI50 (SK-MEL-28 melanoma) [µM],TGI (SK-MEL-28 melanoma),GI50 (NCI-H226 lung) [µM],TGI (NCI-H226 lung),GI50 (HCC-2998 colon) [µM],TGI (HCC-2998 colon) [µM],GI50 (OVCAR-5 ovarian) [µM],TGI (OVCAR-5 ovarian) [µM],GI50 (NCI-H522 lung) [µM],TGI (NCI-H522 lung),GI50 (SF-295 CNS) [µM],TGI (SF-295 CNS),GI50 (SK-OV-3 ovarian),TGI (SK-OV-3 ovarian),GI50 (SW-620 colon),TGI (SW-620 colon) [µM]
OC[C@H]1C[C@](O)(c2ccccc2Cl)[C@@H](c2ccccc2Cl)O1,27.8,> 100 µM,16.3,33.3,26.4,79.6 µM,26,76.3 µM,29.5,79.4,23,70.8,13.4,38.4 µM,27.1,94.6 µM,23.6 µM,84.4 µM,30.1 µM,> 100
C=C1C(C)C2C(Cc3ccccc3)NC(=O)C23C(OC(C)=O)C=CC(C)(O)C(=O)C(C)C/C=C/C3C1O (stereo not drawn),15.4,78.8 µM and > 500 µM,2.32,> 414,22.2,57.7 µM and 153 µM,–,51.4 µM and > 500 µM,> 500,> 500,–,> 500,–,27.3 µM and 36.4 µM,0.418,30.5 µM and 62.3 µM,0.0761 µM and 0.23 µM,49.5 µM and 76.1 µM,> 500 µM,> 500
CNC(=O)c1sc(-n2cnc3cc(OC)c(OC)cc32)cc1OCc1ccccc1C(F)(F)F,> 25,> 25 µM,> 25,> 25,> 25,> 25 µM,22.9,> 25 µM,> 25,> 25,> 25,> 25,> 25,> 25 µM,> 21.4,> 25 µM,> 25 µM,> 25 µM,> 25 µM,> 25
COc1cc(F)c(F)c(Nc2ccc(I)cc2F)c1NS(=O)(=O)C1(CC(O)CO)CC1 (stereo not drawn),19.8,> 72.3 µM,4.63,22.3,3.02,13.7 µM,15.2,49.2 µM,10.8,25.5,10.2,30.1,11.5,29.9 µM,15,32.5 µM,25.8 µM,> 79.6 µM,13.6 µM,> 59.5
CSc1ccc(-c2cn3ccsc3n2)cc1,3.97,> 47.1 µM,12.6,> 100,27,> 100 µM,24.8,98.1 µM,20.9,> 100,38.9,> 100,11.1,> 89.5 µM,19,> 86 µM,59.7 µM,> 100 µM,14.6 µM,> 100
N#Cc1cnn(C(=O)c2nn(-c3ccc(Cl)cc3)cc2O)c1N,0.279,4.03 µM,0.312,18.9,0.63,27.3 µM,0.349,7.45 µM,0.623,18,0.61,21.6,0.173,1.47 µM,0.163,0.646 µM,0.521 µM,11.3 µM,0.521 µM,21
COc1cc([C@H]2OC[C@@H]3C(c4cc(OC)c5c(c4)OCO5)OC[C@H]23)cc(OC)c1OC (stereo partly drawn),–,> 100 µM,–,> 100,–,> 100 µM,–,> 100 µM,–,> 100,–,> 100,–,> 100 µM,–,> 100 µM,–,> 100 µM,–,> 100
O=C1OC(c2ccccc2)=N/C1=C\c1ccccc1,–,74.4 µM and 87.5 µM,–,> 100,–,> 100 µM,–,> 100 µM and 58.2 µM,–,> 100,–,> 100,–,> 100 µM,–,> 100 µM,–,> 100 µM,> 100 µM and 35.5 µM,> 100
COc1ccc(/C(=C(\c2ccccc2)[N+](=O)[O-])c2ccc(OCCN3CCCC3)cc2)cc1,5.19,22.9 µM,2.85,10.5,1.77,3.38 µM,4.37,18.2 µM,4.16,15.5,8.75,22.9,2.46,9.62 µM,1.93,5.39 µM,5.5 µM,18.3 µM,1.74 µM,4.19
COc1cccc(/C=C\C(=O)c2ccccc2)c1,6.79,> 100 µM,11.9,27.8,4.31,15 µM,16.6,32.9 µM,8.72,25.7,9.84,41.2,2.06,4.62 µM,8.45,27.5 µM,15.9 µM,32.2 µM,2.7 µM,7.31
O=C(/C=C/c1ccco1)Nc1ncc(Cc2cc(Cl)ccc2Cl)s1,0.0385,> 100 µM,0.0191,0.0449,2.13,> 100 µM,0.581,> 100 µM,0.208,> 100,0.257,> 100,0.0364,–,0.045,> 100 µM,0.0538 µM,> 100 µM,0.0417 µM,> 100
CC1CCc2c(C(=O)Nc3ncc(Cc4cccc([N+](=O)[O-])c4)s3)csc2C1 (stereo not drawn),0.612,> 100 µM,0.133,0.45,3.66,> 100 µM,1.96,> 100 µM,1.51,> 100,1.56,> 100,0.387,–,0.4,> 100 µM,0.436 µM,> 100 µM,0.414 µM,> 100
COc1cc(OC)c(/C=C/S(=O)(=O)Cc2ccc(OC)c(N)n2)c(OC)c1,< 0.0157,> 100 µM,< 0.01,< 0.01,–,> 100 µM,–,> 100 µM,< 0.0193,> 100,< 0.0256,> 100,< 0.01,–,< 0.01,> 100 µM,< 0.01 µM,> 100 µM,< 0.01 µM,> 100
O=C1c2ccc3c4c(ccc(c24)C(=O)N1CCCCO)C(=O)N(CCCCO)C3=O,2.74,> 100 µM,1.46,2.86,2.6,10.4 µM,3.45,15.5 µM,1.91,10.5,1.57,4.06,1.55,5.73 µM,1.14,4.84 µM,4.14 µM,17.8 µM,1.86 µM,10.1
